Publication PMC11839852, “Preclinical comparison of (radio)lanthanides using mass spectrometry and nuclear imaging techniques: biodistribution of lanthanide-based tumor-targeting agents and lanthanides in ionic form” (European Journal of Nuclear Medicine and Molecular Imaging, 2024)
Read-outs that look alike come from different tables or passages of the source. Marks after values point to notes of the source that are not given here. Blank lines part the entries; values can stand above or below the compound they belong to.

How the values were obtained:
[1] = test system: PC-3 PIP/flu tumor-bearing mice; conditions: Ln-PSMA-617; for Tissue uptake: Blood / Tissue uptake: Bone / Tissue uptake: Heart / Tissue uptake: Intestines / Tissue uptake: Kidneys / Tissue uptake: Liver / Tissue uptake: Lung / Tissue uptake: Muscle / Tissue uptake: Salivary glands / Tissue uptake: Spleen / Tissue uptake: Stomach: PC-3 PIP/flu tumor-bearing mice; for Tissue uptake: PC-3 flu tumor: PSMA-negative xenograft; for Tissue uptake: PC-3 PIP tumor: PSMA-positive xenograft; for PC-3 PIP tumor-to-background organ ratios: Tumor-to-blood / PC-3 PIP tumor-to-background organ ratios: Tumor-to-liver: estimated ratios (organ <0.5% ID/g)
[2] = test system: non-tumor-bearing immunocompetent FVB mice; assay: Biodistribution of lanthanide chloride salts LnCl3 (multiplexed ICP-MS); type: in vivo; conditions: for Tissue uptake: Blood / Tissue uptake: Bone / Tissue uptake: Brain / Tissue uptake: Heart / Tissue uptake: Intestines / Tissue uptake: Kidneys / Tissue uptake: Liver / Tissue uptake: Lung / Tissue uptake: Muscle / Tissue uptake: Pancreas / Tissue uptake: Salivary glands / Tissue uptake: Spleen / Tissue uptake: Stomach: non-tumor-bearing mice
[3] = 24 h p.i., estimated ratios (organ <0.5% ID/g)
[4] = 96 h p.i., estimated ratios (organ <0.5% ID/g)

SMILES: O=C([O-])CN1CCN(CC(=O)[O-])CCN(CC(=O)NCC2CCC(C(=O)NC(Cc3ccc4ccccc4c3)C(=O)NCCCCC(NC(=O)NC(CCC(=O)O)C(=O)O)C(=O)O)CC2)CCN(CC(=O)[O-])CC1.[Lu+3] (stereo not drawn) [[^175Lu]Lu-PSMA-617]
PC-3 PIP tumor-to-background organ ratios: Tumor-to-kidney ([1]; 1 h p.i.): 2.7 ± 0.8
Tissue uptake: Blood ([1]; 1 h p.i.): <0.5 % ID/g
Tissue uptake: Bone ([1]; 1 h p.i.): <0.5 % ID/g
Tissue uptake: Heart ([1]; 1 h p.i.): <0.5 % ID/g
Tissue uptake: Intestines ([1]; 1 h p.i.): <0.5 % ID/g
Tissue uptake: Kidneys ([1]; 1 h p.i.): 10 ± 4 % ID/g
Tissue uptake: Liver ([1]; 1 h p.i.): <0.5 % ID/g
Tissue uptake: Lung ([1]; 1 h p.i.): <0.5 % ID/g
Tissue uptake: Muscle ([1]; 1 h p.i.): <0.5 % ID/g
Tissue uptake: Salivary glands ([1]; 1 h p.i.): <0.5 % ID/g
Tissue uptake: Spleen ([1]; 1 h p.i.): 0.64 ± 0.48 % ID/g
Tissue uptake: Stomach ([1]; 1 h p.i.): 0.56 ± 0.19 % ID/g
Tissue uptake: PC-3 flu tumor ([1]; 1 h p.i.): <0.5 % ID/g
Tissue uptake: PC-3 PIP tumor ([1]; 1 h p.i.): 25 ± 3 % ID/g
PC-3 PIP tumor-to-background organ ratios: Tumor-to-blood ([1]; 1 h p.i.): >51^*
PC-3 PIP tumor-to-background organ ratios: Tumor-to-liver ([1]; 1 h p.i.): >51^*
PC-3 PIP tumor-to-background organ ratios: Tumor-to-kidney ([1]; 4 h p.i.): 18 ± 3
Tissue uptake: Blood ([1]; 4 h p.i.): <0.5 % ID/g
Tissue uptake: Bone ([1]; 4 h p.i.): <0.5 % ID/g
Tissue uptake: Heart ([1]; 4 h p.i.): <0.5 % ID/g
Tissue uptake: Intestines ([1]; 4 h p.i.): <0.5 % ID/g
Tissue uptake: Kidneys ([1]; 4 h p.i.): 1.4 ± 0.4 % ID/g
Tissue uptake: Liver ([1]; 4 h p.i.): <0.5 % ID/g
Tissue uptake: Lung ([1]; 4 h p.i.): <0.5 % ID/g
Tissue uptake: Muscle ([1]; 4 h p.i.): <0.5 % ID/g
Tissue uptake: Salivary glands ([1]; 4 h p.i.): <0.5 % ID/g
Tissue uptake: Spleen ([1]; 4 h p.i.): <0.5 % ID/g
Tissue uptake: Stomach ([1]; 4 h p.i.): <0.5 % ID/g
Tissue uptake: PC-3 flu tumor ([1]; 4 h p.i.): <0.5 % ID/g
Tissue uptake: PC-3 PIP tumor ([1]; 4 h p.i.): 23 ± 3 % ID/g
PC-3 PIP tumor-to-background organ ratios: Tumor-to-blood ([1]; 4 h p.i.): >47^*
PC-3 PIP tumor-to-background organ ratios: Tumor-to-liver ([1]; 4 h p.i.): >47^*

Organ ratios: Blood-to-bone ([2]; 1 h p.i.): 0.38 ± 0.23
Organ ratios: Blood-to-liver ([2]; 1 h p.i.): 0.61 ± 0.35
Organ ratios: Liver-to-bone ([2]; 1 h p.i.): 0.64 ± 0.13
Tissue uptake: Blood ([2]; 1 h p.i.): 6.4 ± 2.7 % ID/g
Tissue uptake: Bone ([2]; 1 h p.i.): 18 ± 3 % ID/g
Tissue uptake: Brain ([2]; 1 h p.i.): <0.5 % ID/g
Tissue uptake: Heart ([2]; 1 h p.i.): 3.6 ± 1.5 % ID/g
Tissue uptake: Intestines ([2]; 1 h p.i.): 3.2 ± 1.1 % ID/g
Tissue uptake: Kidneys ([2]; 1 h p.i.): 7.3 ± 1.7 % ID/g
Tissue uptake: Liver ([2]; 1 h p.i.): 11 ± 3 % ID/g
Tissue uptake: Lung ([2]; 1 h p.i.): 5.6 ± 2.2 % ID/g
Tissue uptake: Muscle ([2]; 1 h p.i.): 1.5 ± 0.6 % ID/g
Tissue uptake: Pancreas ([2]; 1 h p.i.): 2.6 ± 0.8 % ID/g
Tissue uptake: Salivary glands ([2]; 1 h p.i.): 2.6 ± 0.9 % ID/g
Tissue uptake: Spleen ([2]; 1 h p.i.): 3.8 ± 0.5 % ID/g
Tissue uptake: Stomach ([2]; 1 h p.i.): 5.8 ± 2.1 % ID/g
Organ ratios: Liver-to-bone ([2]; 24 h p.i.): 0.49 ± 0.19
Organ ratios: Blood-to-bone [2, 3]: <0.02^*
Organ ratios: Blood-to-liver [2, 3]: <0.05^*
Tissue uptake: Blood ([2]; 24 h p.i.): <0.5 % ID/g
Tissue uptake: Bone ([2]; 24 h p.i.): 25 ± 5 % ID/g
Tissue uptake: Brain ([2]; 24 h p.i.): <0.5 % ID/g
Tissue uptake: Heart ([2]; 24 h p.i.): 0.54 ± 0.06 % ID/g
Tissue uptake: Intestines ([2]; 24 h p.i.): 0.61 ± 0.02 % ID/g
Tissue uptake: Kidneys ([2]; 24 h p.i.): 3.7 ± 1.0 % ID/g
Tissue uptake: Lung ([2]; 24 h p.i.): 0.88 ± 0.13 % ID/g
Tissue uptake: Muscle ([2]; 24 h p.i.): <0.5 % ID/g
Tissue uptake: Pancreas ([2]; 24 h p.i.): <0.5 % ID/g
Tissue uptake: Salivary glands ([2]; 24 h p.i.): 0.55 ± 0.17 % ID/g
Tissue uptake: Spleen ([2]; 24 h p.i.): 3.5 ± 0.9 % ID/g
Tissue uptake: Stomach ([2]; 24 h p.i.): 1.8 ± 0.3 % ID/g
Tissue uptake: Liver ([2]; 24 h p.i., listed as lutetium): 12 ± 3 % ID/g
Tissue uptake: Liver ([2]; 24 h p.i., listed as natLu): ~ 12 % ID/g
Organ ratios: Liver-to-bone ([2]; 96 h p.i.): 0.14 ± 0.04
Organ ratios: Blood-to-bone [2, 4]: <0.01^*
Organ ratios: Blood-to-liver [2, 4]: <0.11^*
Tissue uptake: Blood ([2]; 96 h p.i.): <0.5 % ID/g
Tissue uptake: Bone ([2]; 96 h p.i.): 35 ± 4 % ID/g
Tissue uptake: Brain ([2]; 96 h p.i.): <0.5 % ID/g
Tissue uptake: Heart ([2]; 96 h p.i.): 0.89 ± 0.25 % ID/g
Tissue uptake: Intestines ([2]; 96 h p.i.): 0.54 ± 0.14 % ID/g
Tissue uptake: Kidneys ([2]; 96 h p.i.): 2.7 ± 0.2 % ID/g
Tissue uptake: Liver ([2]; 96 h p.i.): 4.8 ± 0.9 % ID/g
Tissue uptake: Lung ([2]; 96 h p.i.): 1.1 ± 0.2 % ID/g
Tissue uptake: Muscle ([2]; 96 h p.i.): <0.5 % ID/g
Tissue uptake: Pancreas ([2]; 96 h p.i.): <0.5 % ID/g
Tissue uptake: Salivary glands ([2]; 96 h p.i.): 0.50 ± 0.06 % ID/g
Tissue uptake: Spleen ([2]; 96 h p.i.): 2.3 ± 0.2 % ID/g
Tissue uptake: Stomach ([2]; 96 h p.i.): 2.5 ± 0.2 % ID/g
SMILES: [Cl][Lu]([Cl])[Cl] [[^175Lu]LuCl3]
